Measurements published in patent publication US20260125346A1, “Isoquinolinone Derivatives and 4H-Quinolizinone Derivatives and Pharmaceutical Compositions Thereof for the Treatment of Disease” (BeOne Medicines I GmbH, priority 2023, published 2026).

Experiments:
[1] = target: PI3Kα (p110/p85) kinase (wild type, "WT") (Homo sapiens, UniProt P42336); test: PI3Kα (p110/p85) kinase ADP-Glo Assay; assay type: biochemical; conditions: 25 uM ATP
How it was run: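 IC50 values come from a four-parameter logistic fit of ADP-Glo chemiluminescence, reflecting ADP formed. Enzyme, lipid substrate and […] compound were preincubated 30 min at room temperature, then 25 µM ATP was added for a 120 min reaction in 50 mM HEPES pH7.5, 3 mM MgCl2.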

[2] = target: PI3Kα (p110[H1047R]/p85) kinase (Homo sapiens, UniProt P42336, H1047R); test: PI3Kα (p110[H1047R]/p85) kinase ADP-Glo Assay; assay type: biochemical; conditions: 25 uM ATP; for selectivity: WT/H1047R: ADP-Glo Assay IC50 ratio
PI3Kα (p110[H1047R]/p85) kinase, sequence (P42336 whole entry H1047R): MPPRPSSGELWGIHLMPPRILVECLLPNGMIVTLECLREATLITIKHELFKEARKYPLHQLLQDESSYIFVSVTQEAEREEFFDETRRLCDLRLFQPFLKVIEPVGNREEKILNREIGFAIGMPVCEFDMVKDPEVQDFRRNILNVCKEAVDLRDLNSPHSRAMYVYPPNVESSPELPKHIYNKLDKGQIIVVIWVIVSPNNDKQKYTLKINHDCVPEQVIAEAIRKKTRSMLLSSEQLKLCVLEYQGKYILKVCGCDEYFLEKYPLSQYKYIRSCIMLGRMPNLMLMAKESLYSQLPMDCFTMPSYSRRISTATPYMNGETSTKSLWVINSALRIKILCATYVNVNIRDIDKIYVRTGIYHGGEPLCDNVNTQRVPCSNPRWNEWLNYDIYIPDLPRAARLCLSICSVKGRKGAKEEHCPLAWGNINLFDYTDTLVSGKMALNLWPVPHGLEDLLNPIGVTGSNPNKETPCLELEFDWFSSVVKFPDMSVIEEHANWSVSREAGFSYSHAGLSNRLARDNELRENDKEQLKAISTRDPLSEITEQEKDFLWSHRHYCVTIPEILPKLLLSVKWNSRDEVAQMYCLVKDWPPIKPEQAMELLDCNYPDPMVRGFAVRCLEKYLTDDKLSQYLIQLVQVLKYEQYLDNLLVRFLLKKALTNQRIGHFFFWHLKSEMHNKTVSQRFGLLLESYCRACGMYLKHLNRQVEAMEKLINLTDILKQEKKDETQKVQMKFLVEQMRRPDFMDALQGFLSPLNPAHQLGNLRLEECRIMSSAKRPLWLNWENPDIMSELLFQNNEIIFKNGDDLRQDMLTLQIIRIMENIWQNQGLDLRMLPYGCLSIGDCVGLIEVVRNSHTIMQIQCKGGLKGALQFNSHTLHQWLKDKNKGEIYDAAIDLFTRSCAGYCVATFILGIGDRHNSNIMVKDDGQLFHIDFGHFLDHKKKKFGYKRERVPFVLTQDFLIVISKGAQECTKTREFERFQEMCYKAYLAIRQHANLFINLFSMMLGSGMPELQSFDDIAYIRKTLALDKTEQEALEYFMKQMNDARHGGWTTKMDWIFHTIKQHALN
PI3Kα (p110[H1047R]/p85) kinase, sequence (P27986 whole entry partner): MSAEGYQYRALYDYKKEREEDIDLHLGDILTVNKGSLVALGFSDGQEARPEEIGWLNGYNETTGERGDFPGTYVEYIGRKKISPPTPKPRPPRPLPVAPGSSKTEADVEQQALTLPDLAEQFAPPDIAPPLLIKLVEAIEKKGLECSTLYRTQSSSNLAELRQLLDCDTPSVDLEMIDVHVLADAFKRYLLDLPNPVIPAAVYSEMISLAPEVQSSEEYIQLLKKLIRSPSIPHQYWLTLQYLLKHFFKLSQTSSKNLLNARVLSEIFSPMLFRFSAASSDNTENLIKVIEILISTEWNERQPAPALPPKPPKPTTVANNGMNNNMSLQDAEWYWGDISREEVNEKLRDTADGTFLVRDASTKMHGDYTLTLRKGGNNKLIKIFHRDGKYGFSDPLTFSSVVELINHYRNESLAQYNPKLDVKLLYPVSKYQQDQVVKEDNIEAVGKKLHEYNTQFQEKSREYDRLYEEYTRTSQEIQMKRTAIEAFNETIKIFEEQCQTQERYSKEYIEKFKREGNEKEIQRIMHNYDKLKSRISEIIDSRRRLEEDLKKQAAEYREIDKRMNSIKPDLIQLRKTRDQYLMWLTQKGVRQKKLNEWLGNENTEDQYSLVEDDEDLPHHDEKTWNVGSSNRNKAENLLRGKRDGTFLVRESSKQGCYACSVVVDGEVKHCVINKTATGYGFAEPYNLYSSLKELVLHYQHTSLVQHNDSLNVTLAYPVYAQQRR
How it was run: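 ADP-Glo luminescence tracked ADP formed by the mutant p110α(H1047R)/p85 complex during a 120 min room-temperature reaction with 25 µM ATP and 5.35 µg/ml PI(4,5)P2:PS lipid substrate, started after 30 min enzyme–compound–substrate pre-incubation (compound […], 50 mM HEPES pH 7.5). IC50 via four-parameter logistic equation.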

PI3Kα (p110/p85) kinase (wild type, "WT"), sequence (P42336 whole entry): as the sequence (P42336 whole entry H1047R) above, with R1047H counted along it
PI3Kα (p110/p85) kinase (wild type, "WT"), sequence (P27986 whole entry partner): as the sequence (P27986 whole entry partner) above

| IC50 [1] | IC50 [2] | selectivity: WT/H1047R [2] | SMILES |
| --- | --- | --- | --- |
| 3870 nM | 443 nM | 8.7 | Cc1cc(C(C)Nc2ccccc2C(=O)O)c2cc(-c3ccc(C#N)cc3)n(C)c(=O)c2c1 (stereo not drawn) [Example 4, 2-((1-(3-(4-cyanophenyl)-2,7-dimethyl-1-oxo-1,2-dihydroisoquinolin-5-yl)ethyl)amino)benzoic acid] |
| 9820 nM | 240 nM | 40.9 | Cc1cc(C(C)Nc2ccccc2C(=O)O)c2cc(-c3cnn(C)c3)n(C)c(=O)c2c1 (stereo not drawn) [Example 91, 2-((1-(2,7-dimethyl-3-(1-methyl-1H-pyrazol-4-yl)-1-oxo-1,2-dihydroisoquinolin-5-yl)ethyl)amino)benzoic acid] |
| > 100000 nM | 887 nM | >113 | Cc1cc(C(C)Nc2sc3ccccc3c2C(=O)O)c2cc(-c3ccccc3)n(C)c(=O)c2c1 (stereo not drawn) [Example 92, 2-((1-(2,7-dimethyl-1-oxo-3-phenyl-1,2-dihydroisoquinolin-5-yl)ethyl)amino)benzo[b]thiophene-3-carboxylic acid] |
